ChEMBL document CHEMBL1201862, “PubChem BioAssay data set” (2004)
Each block holds one molecule with its values, some of them ahead of it. Active and inactive are the calls of the source.

Key:
[1] = P. falciparum late gametocyte killing, dose response, luminescence (AID 1117278); assay type: functional, cell-based;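 note: gametocytes exposed to compound for 24 hours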
[2] = Jurkat T cell cytotoxicity, dose response, cytotoxicity control for P. falciparum gametocyte viability project, luminescence (AID 1117277); assay type: functional, cell-based;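 note: potency reflects loss of cellular ATP meaning fewer viable cells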
[3] = target: T1, Carboxy-terminal domain RNA polymerase II polypeptide A small phosphatase 1 (Homo sapiens, UniProt Q9GZU7); assay: inhibitors of CTDSP1, concentration-response testing, biochemical assay, absorbance-based, actives from ultra-high-throughput screening (AID 540297); assay type: functional
T1 sequence (Q9GZU7 whole entry): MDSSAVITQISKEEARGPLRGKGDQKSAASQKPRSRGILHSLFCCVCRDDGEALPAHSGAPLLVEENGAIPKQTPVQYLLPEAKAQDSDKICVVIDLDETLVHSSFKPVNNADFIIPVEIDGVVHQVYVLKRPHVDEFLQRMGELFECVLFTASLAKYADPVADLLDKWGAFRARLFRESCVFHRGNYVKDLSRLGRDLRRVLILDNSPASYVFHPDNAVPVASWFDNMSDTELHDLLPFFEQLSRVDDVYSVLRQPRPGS

[4] = target: NAD-dependent protein deacylase sirtuin-5, mitochondrial (Homo sapiens, UniProt Q9NXA8); assay: SIRT5 desuccinylase inhibitors, dose response, biochemical, fluorescence imaging, cherry-pick, set 5 (AID 720591);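 note: desuccinylation of succinyl peptide AMC substrate read as fluorescence after trypsin release; potency of inhibitors that lower fluorescence and may act on trypsin instead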
NAD-dependent protein deacylase sirtuin-5, mitochondrial, sequence (Q9NXA8 whole entry): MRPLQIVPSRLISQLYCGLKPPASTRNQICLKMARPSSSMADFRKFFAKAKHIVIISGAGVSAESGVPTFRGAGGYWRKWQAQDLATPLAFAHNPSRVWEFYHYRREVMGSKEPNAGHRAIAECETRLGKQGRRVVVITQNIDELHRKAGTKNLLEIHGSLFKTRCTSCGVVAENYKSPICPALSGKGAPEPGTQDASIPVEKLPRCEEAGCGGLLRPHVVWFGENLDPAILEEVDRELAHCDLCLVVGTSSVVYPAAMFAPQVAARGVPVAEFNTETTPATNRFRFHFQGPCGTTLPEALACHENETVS

[5] = target: T2, Low molecular weight phosphotyrosine protein phosphatase (Homo sapiens, UniProt P24666); assay type: functional; conditions: read-out: IC50_Mean;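 note: Dose-response confirmation assay measuring inhibition of LMPTP enzyme activity by fluorescence intensity read-out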
T2 sequence (P24666 whole entry): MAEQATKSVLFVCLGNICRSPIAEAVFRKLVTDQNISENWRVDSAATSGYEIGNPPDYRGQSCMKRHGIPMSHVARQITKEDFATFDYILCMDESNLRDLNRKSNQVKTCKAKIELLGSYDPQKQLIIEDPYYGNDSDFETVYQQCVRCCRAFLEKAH

[6] = target: Endoplasmic reticulum aminopeptidase 1 (Homo sapiens, UniProt Q9NZ08); assay: ERAP1 aminopeptidase inhibitors, dose response, biochemical, cherry-pick, set 2, plate reader (AID 743314)
Endoplasmic reticulum aminopeptidase 1, sequence (Q9NZ08 whole entry): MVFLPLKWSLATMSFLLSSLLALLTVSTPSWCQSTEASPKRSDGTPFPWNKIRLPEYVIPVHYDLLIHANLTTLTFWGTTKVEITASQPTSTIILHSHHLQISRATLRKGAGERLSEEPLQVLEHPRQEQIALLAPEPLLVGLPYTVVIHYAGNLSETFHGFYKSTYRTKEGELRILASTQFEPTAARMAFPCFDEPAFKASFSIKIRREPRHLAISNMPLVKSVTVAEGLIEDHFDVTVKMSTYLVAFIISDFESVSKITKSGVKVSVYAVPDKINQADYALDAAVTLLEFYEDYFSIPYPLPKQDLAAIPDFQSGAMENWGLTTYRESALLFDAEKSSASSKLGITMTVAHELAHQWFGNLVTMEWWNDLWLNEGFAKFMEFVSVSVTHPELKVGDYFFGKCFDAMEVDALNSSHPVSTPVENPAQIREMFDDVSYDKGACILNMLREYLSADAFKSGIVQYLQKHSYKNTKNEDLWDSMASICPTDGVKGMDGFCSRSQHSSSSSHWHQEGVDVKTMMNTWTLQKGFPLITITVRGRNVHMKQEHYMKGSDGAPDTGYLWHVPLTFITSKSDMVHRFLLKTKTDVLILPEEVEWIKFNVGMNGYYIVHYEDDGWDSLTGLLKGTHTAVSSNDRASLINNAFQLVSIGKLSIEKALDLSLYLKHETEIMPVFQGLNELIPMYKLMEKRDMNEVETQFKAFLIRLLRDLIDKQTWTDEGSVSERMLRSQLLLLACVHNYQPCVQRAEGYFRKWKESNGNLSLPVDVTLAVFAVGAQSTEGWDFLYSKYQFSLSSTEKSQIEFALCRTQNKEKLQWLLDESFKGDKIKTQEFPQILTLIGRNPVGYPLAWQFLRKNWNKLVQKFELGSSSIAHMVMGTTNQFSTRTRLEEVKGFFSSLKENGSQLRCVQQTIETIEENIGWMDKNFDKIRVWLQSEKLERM

[7] = target: Diphosphomevalonate decarboxylase (Streptococcus pneumoniae serotype 2 (strain D39 / NCTC 7466), UniProt Q9FD53); assay: S. pneumoniae DPM-DC inhibition retest, confirmation, biochemical, cuvette format, coupled NADH fluorescence (AID 1028); assay type: functional
Diphosphomevalonate decarboxylase, sequence (Q9FD53 whole entry): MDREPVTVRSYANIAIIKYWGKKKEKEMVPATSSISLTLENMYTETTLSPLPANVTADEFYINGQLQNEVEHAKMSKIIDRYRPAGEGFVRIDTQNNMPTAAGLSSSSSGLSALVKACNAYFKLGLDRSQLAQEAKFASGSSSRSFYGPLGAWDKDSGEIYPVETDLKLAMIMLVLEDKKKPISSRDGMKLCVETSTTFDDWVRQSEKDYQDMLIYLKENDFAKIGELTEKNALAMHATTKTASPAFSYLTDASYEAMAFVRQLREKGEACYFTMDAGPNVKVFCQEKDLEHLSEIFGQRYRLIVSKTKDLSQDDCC

[8] = target: T3, Mannose-6-phosphate isomerase (Homo sapiens, UniProt P34949); assay: human PMI inhibitors, high substrate, primary screen, biochemical, fluorescence intensity, high mannose 6-phosphate (AID 1220)
T3 sequence (P34949 whole entry): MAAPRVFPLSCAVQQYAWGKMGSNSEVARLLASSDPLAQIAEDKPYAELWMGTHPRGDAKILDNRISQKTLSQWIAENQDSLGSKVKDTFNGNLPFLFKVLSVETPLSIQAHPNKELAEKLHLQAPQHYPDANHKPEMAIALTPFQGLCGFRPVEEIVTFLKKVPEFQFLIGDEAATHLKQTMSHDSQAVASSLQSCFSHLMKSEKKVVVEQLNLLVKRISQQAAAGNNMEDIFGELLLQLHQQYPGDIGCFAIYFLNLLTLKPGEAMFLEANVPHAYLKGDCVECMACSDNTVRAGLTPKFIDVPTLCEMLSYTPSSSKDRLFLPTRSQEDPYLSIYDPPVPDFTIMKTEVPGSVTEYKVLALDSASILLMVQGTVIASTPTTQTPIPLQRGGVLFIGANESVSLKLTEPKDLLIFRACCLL

[9] = target: E3 ubiquitin-protein ligase Mdm2 (Homo sapiens, UniProt Q00987); assay: enhancers of MDM2-luciferase reporter signal, concentration-effect titration, project on inhibitors of MDM2 ubiquitin ligase, cellular assay, luminescent readout, 384-well plate format (AID 1394); assay type: functional;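 note: MDM2 E3 inhibitors raise luminescence so EC50 is for signal enhancement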
E3 ubiquitin-protein ligase Mdm2, sequence (Q00987 whole entry): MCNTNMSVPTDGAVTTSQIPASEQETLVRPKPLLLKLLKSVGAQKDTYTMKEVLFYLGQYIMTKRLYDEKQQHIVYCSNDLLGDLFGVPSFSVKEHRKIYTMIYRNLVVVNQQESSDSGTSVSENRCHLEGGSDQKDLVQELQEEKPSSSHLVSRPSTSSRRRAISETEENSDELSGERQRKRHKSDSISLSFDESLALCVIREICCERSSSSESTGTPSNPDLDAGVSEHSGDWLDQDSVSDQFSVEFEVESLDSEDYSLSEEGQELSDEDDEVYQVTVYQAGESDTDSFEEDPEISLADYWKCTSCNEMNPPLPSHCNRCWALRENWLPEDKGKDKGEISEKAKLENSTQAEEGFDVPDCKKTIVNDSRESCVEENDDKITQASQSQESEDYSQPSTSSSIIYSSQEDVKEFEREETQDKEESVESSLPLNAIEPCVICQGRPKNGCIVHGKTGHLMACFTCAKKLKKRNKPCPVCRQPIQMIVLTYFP

Vero = assay: host cell cytotoxicity of antiviral hits, dose response, cytotoxicity control for West Nile virus antiviral project, secondary assay (AID 1650); assay type: functional; conditions: Chlorocebus sabaeus
[10] = Luminescence-based cell-based high throughput dose response assay to identify activators of the DAF-12 from the parasite S. stercoralis (ssDAF-12).; assay type: functional
[11] = target: T4, Oxysterols receptor LXR-beta (Homo sapiens, UniProt P55055); assay: LXR agonists, Gal4 luciferase reporter, dose response, counter-screen for ssDAF-12 agonist project, cell-based, luminescence, HEK293, S. stercoralis campaign (AID 720737); assay type: functional; conditions: read-out: IC50 (the source's name)
T4 sequence (P55055 whole entry): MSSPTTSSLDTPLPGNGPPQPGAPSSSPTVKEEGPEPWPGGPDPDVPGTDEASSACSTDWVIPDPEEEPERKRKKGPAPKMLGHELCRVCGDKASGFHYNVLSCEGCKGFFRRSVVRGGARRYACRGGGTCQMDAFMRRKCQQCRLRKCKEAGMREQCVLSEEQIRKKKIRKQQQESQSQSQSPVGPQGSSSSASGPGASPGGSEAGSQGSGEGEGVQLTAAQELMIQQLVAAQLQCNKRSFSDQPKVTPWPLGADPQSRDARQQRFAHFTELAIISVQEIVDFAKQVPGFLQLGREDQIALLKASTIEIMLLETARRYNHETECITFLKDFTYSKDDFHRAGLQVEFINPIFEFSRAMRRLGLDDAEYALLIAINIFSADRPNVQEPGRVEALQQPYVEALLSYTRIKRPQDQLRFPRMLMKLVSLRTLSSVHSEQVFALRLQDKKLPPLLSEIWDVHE

[12] = target: Disintegrin and metalloproteinase domain-containing protein 17 (Homo sapiens, UniProt P78536); assay: ADAM17 protease inhibitors, dose response, counter-screen for ADAM10 exosite inhibitor project, biochemical, quenched FRET substrate (AID 743253)
[13] = ADAM10 inhibitors, peptide cleavage, dose response, biochemical, QFRET (AID 743254);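 note: ADAM10 enzyme with the DM2 quenched FRET peptide as substrate; EDANS fluorescence gain as the protease cuts the substrate; inhibitor potency against ADAM10 proteolytic activity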
[14] = inhibitors of Vif binding to APOBEC3G peptide, primary screen, biochemical, TR-FRET, GST-Vif 1-94, biotin-A3G peptide, dose response retest (AID 1117319); assay type: functional;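 note: TR-FRET signal of purified GST-Vif binding a biotinylated A3G peptide; inhibitors lower the FRET signal by blocking Vif and A3G binding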
Fatty acid synthase [15] = target: T5, Fatty acid synthase (Homo sapiens, UniProt P49327); assay: FAS thioesterase domain inhibitors, dose response, biochemical, kinetic fluorescence intensity (AID 624326); assay type: functional;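 note: rate of fluorescence rise from hydrolysis of a fluorogenic O-methyl fluorescein ester substrate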
T5 sequence (P49327 whole entry, the tested form may be a part): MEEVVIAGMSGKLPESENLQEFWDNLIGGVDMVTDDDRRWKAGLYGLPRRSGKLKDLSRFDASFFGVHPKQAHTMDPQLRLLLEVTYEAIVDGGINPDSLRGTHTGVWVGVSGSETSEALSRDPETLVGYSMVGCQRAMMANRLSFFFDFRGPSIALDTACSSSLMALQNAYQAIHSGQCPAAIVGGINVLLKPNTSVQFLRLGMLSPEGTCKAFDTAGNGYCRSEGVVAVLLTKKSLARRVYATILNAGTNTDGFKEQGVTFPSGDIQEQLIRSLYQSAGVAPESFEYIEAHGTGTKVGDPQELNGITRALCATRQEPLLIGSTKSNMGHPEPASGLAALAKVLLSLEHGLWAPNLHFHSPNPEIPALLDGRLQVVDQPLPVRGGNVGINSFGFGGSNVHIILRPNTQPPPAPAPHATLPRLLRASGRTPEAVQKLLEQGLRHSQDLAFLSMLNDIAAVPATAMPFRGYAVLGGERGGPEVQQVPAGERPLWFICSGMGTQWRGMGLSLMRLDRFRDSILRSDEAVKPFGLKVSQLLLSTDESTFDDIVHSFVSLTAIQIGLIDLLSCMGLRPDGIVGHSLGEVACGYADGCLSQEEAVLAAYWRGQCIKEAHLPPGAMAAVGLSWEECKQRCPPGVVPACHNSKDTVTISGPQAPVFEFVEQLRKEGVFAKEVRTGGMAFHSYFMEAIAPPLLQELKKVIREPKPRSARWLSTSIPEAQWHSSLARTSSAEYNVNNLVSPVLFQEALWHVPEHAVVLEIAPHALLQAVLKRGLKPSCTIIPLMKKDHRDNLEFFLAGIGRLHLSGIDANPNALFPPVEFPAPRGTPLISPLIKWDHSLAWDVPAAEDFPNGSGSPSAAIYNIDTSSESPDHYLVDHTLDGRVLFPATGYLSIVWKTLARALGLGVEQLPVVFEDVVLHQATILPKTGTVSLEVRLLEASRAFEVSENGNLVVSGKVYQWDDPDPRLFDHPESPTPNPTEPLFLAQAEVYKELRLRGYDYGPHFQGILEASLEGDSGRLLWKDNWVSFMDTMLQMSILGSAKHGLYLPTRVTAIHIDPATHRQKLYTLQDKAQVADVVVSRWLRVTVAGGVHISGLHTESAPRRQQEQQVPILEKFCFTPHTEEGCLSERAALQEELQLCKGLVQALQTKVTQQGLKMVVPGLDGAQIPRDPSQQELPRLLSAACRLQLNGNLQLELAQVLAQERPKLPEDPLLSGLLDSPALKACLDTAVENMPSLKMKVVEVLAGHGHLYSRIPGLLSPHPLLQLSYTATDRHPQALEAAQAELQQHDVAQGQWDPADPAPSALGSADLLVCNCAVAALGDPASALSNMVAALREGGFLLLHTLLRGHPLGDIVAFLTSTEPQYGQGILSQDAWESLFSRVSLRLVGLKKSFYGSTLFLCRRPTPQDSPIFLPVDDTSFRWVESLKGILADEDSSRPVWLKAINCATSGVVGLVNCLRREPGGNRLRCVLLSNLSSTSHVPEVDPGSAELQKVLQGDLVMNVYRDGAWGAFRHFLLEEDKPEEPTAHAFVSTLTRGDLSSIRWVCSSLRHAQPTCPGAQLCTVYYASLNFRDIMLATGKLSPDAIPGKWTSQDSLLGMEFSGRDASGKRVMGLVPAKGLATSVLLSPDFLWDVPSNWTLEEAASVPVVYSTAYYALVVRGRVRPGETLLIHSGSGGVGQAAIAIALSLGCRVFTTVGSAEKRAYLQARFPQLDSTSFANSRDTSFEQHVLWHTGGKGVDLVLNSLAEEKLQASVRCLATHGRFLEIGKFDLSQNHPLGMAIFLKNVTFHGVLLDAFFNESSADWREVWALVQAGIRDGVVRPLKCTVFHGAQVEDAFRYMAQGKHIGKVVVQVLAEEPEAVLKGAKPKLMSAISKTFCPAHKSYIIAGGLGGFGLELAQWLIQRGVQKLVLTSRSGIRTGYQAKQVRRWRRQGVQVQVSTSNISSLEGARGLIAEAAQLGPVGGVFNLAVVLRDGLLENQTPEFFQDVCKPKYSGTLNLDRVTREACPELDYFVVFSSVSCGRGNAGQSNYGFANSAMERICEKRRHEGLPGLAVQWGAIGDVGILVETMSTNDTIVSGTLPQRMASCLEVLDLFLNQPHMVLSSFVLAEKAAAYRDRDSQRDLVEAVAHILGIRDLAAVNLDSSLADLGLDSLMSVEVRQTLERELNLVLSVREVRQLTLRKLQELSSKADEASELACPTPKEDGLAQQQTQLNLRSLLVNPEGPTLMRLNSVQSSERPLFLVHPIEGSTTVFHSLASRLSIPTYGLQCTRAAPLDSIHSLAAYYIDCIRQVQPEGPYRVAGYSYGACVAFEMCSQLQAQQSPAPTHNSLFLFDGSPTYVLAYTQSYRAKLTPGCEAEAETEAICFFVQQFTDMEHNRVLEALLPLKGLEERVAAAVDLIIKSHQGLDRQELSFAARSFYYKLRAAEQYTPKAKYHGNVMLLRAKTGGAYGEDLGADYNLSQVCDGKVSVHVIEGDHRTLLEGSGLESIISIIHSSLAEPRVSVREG

Fatty acid synthase [16] = target: T5, Fatty acid synthase; assay: FAS thioesterase domain inhibitors, dose response, biochemical, endpoint fluorescence intensity, uHTS hits (AID 624327); assay type: functional;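 note: fluorescence from hydrolysis of an O-methyl fluorescein acyl ester substrate by the enzyme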

- AC50 [6]: 3.11 µM (active)
Structure (SMILES): Cc1c(CC(=O)N2CCN(C(=O)C3COc4ccccc4O3)CC2)c(=O)oc2cc(O)c(Cl)cc12 (configuration not stated)

- IC50 [8]: > 50 µM (not active)
Structure (SMILES): On1c2c(c3c4nonc4ccc31)CCCC2

- EC50 [9]: 0.01 µM (not active)
Structure (SMILES): Cc1cc(OC(=O)c2ccccc2)c([N+](=O)[O-])c(O)n1

- IC50 [12]: > 69.5 µM (inactive)
- IC50 [13]: > 69.5 µM (inactive)
Structure (SMILES): Cc1ccc(C(=O)Nc2ccccc2C(=O)NCc2ccco2)cc1S(=O)(=O)N1CCCCC1

- IC50 [14]: > 100 µM (active)
Structure (SMILES): CC(=O)Cc1nsc(Nc2ccc3c(c2)OCCO3)n1

- AC50 [4]: > 30 µM (inactive)
Structure (SMILES): O=C(NCCN1CCCC(O)C1)c1cc(COc2ccc(F)cc2Cl)on1 (configuration not stated)

- EC50 [9]: 11.1 µM (active)
- IC50 (Fatty acid synthase [15]): 10.9 µM (active)
- IC50 (Fatty acid synthase [16]): 15.3 µM (active)
Structure (SMILES): COc1ccccc1-c1cc(SC)c(C#N)c(=O)o1

The remaining lines, values behind:

Structure (SMILES): CCCn1c(SCC(=O)c2cc(OC)ccc2OC)nnc1-c1ccco1
- IC50 [1]: > 109 µM (inactive)
- IC50 [2]: > 83.3 µM (inactive)

Structure (SMILES): CCSc1nnc(NC(=O)CSc2sc3c(O)cc(=O)[nH]c3c2C#N)s1
- IC50 [3]: 3.21 µM (active)
- AC50 [4]: > 30 µM (inactive)
- IC50 [5]: 49.5 µM (inactive)

Structure (SMILES): O=C(NC1CC1)c1cccc(-n2sc3ccccc3c2=O)c1
- IC50 [7]: 20.4 µM (active)

Structure (SMILES): CCN(c1ccc(C)c(C)c1)S(=O)(=O)c1ccc2c(c1)CCN2C(=O)CCC(=O)O
- IC50 [1]: > 109 µM (inactive)
- IC50 [2]: > 83.3 µM (inactive)

Structure (SMILES): Cc1ccccc1NC(=O)c1cc(C(=O)c2cc(Cl)ccc2O)cn(-c2ccccc2C)c1=O
- CC50 (Vero): 64.8 µM (active)

Structure (SMILES): Cc1ccc(-c2cn3cccc(C)c3n2)cc1
- IC50 [10]: > 67.5 µM (inactive)
- EC50 [11]: > 67.5 µM (inactive)

Structure (SMILES): CN1CCN(C(=O)c2ccc(-n3sc4ccccc4c3=O)cc2)CC1
- IC50 [7]: 25.8 µM (active)
